Results taken from PubChem BioAssay (NCI).
“And” between values parts separate entries of the source, which are not always exact repeats. Equal values may be shown once.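 All cell lines were grown in 96-well plates and treated with compound for 48 hours. Here, GI50 denotes the concentration required for 50% inhibition of growth. TGI is the concentration that stops growth completely.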

What was measured:
Experiment in all cases: NCI-60 cell line screen, 48 h
SK-OV-3 ovarian = system: SK-OV-3 ovarian
SN12C renal = system: SN12C renal
HCT-15 colon = system: HCT-15 colon
TK-10 renal = system: TK-10 renal
MDA-MB-435 = system: MDA-MB-435
RPMI-8226 leukemia = system: RPMI-8226 leukemia
NCI-H23 lung = system: NCI-H23 lung
HL-60(TB) leukemia = system: HL-60(TB) leukemia
MALME-3M melanoma = system: MALME-3M melanoma
HT29 colon = system: HT29 colon

SMILES | TGI (SK-OV-3 ovarian) | TGI (SN12C renal) | TGI (HCT-15 colon) | TGI (TK-10 renal) | TGI (MDA-MB-435) | TGI (RPMI-8226 leukemia) | TGI (NCI-H23 lung) | TGI (HL-60(TB) leukemia) | TGI (MALME-3M melanoma) | TGI (HT29 colon) | GI50 (SK-OV-3 ovarian) | GI50 (SN12C renal) | GI50 (HCT-15 colon) | GI50 (TK-10 renal) | GI50 (MDA-MB-435) | GI50 (RPMI-8226 leukemia) | GI50 (NCI-H23 lung) | GI50 (HL-60(TB) leukemia) | GI50 (MALME-3M melanoma) | GI50 (HT29 colon)
O=C(O)c1c[nH]c2c(ccc3[nH]cc(C(=O)O)c(=O)c32)c1=O | > 100 µM | > 100 µM | > 100 µM | > 100 µM | > 100 µM | > 100 µM | > 100 µM | > 100 µM | > 100 µM | > 100 µM |  |  |  |  |  |  |  |  |  | 
O=C(NCCCl)NCc1ccccc1 | > 100 µM | > 100 µM | > 100 µM |  | > 100 µM | > 100 µM | > 100 µM | > 100 µM | > 100 µM | > 100 µM |  |  |  |  |  |  |  |  |  | 
CCN(CC)CC(O)c1cc(-c2ccc(Cl)cc2)nc2cc(Cl)ccc12 (configuration not stated) | 12 µM | 12.7 µM | 9.26 µM | 3.09 µM | 3.32 µM | 6.15 µM | 4.49 µM | 3.74 µM | 3.62 µM | 3.66 µM | 3.44 µM | 2.96 µM | 3.05 µM | 1.65 µM | 1.71 µM | 2.43 µM | 1.79 µM | 2.02 µM | 1.78 µM | 1.71 µM
COc1cccc(/C=C2\CCc3ccccc3C2=O)c1 | 75.6 µM | 40.2 µM | 49.4 µM | 34.6 µM | 20.1 µM | 8.94 µM | 40.1 µM | 67.4 µM | 29 µM | 19.4 µM | 20.7 µM | 15.8 µM | 10.5 µM | 15.1 µM | 4.15 µM | 2.89 µM | 16.3 µM | 21.9 µM | 12.7 µM | 5.89 µM
Clc1ccc(Nc2ncnc3c2sc2ncccc23)c(Cl)c1 | > 100 µM | > 100 µM | > 100 µM | > 100 µM | > 100 µM | > 100 µM | 1.47 µM | > 100 µM | > 100 µM | > 100 µM | 0.137 µM | 0.126 µM | 0.052 µM | > 100 µM | 0.0482 µM | 0.0326 µM | < 0.01 µM | < 0.0137 µM | 6.67 µM | 0.0462 µM
COc1ccc(Nc2ncccc2C(=O)NCc2cn(Cc3cccc(Oc4ccccc4)c3)nn2)c(OC)c1 | > 30.1 µM | > 100 µM | > 100 µM | > 100 µM | 0.707 µM | > 100 µM | > 100 µM | > 22.7 µM | > 100 µM | 13.5 µM | 2.13 µM | 3.51 µM | 1.68 µM | 13.8 µM | 0.24 µM | 5.33 µM | 2.18 µM | 2.55 µM | 6.21 µM | 1.47 µM
CCC1OC(=O)CC(O)C(C)C(OC2OC(C)CC(N(C)C)C2O)C(CC=O)CC(C)C(=O)/C=C/C2(C)OC2C1C (configuration not stated) | 78.9 µM | 39.1 µM | 39.1 µM |  | 40.3 µM | > 100 µM | 52.3 µM | 32.4 µM | 64.9 µM | 38.3 µM |  |  |  |  |  |  |  |  |  | 
COc1ccc(/C=C/C(=O)c2ccccc2)cc1OC | 29.5 µM and > 100 µM | 30.6 µM and 29 µM | 34.9 µM and 24.8 µM | 32 µM and 27.8 µM | 14.6 µM and 25.2 µM | > 100 µM and 25.3 µM | 50.1 µM and 41.3 µM | 61.2 µM and > 100 µM | 35.1 µM and 38 µM | 22.2 µM and 16.2 µM | 37.8 µM | 13.1 µM | 5.23 µM | 13.6 µM | 6.89 µM | 3.93 µM | 15.8 µM | 14.6 µM | 18.7 µM | 3.86 µM
Cc1cc2nc3c4cc([N+](=O)[O-])ccc4n(CCN(C)C)c3nc2cc1C | > 43.4 µM | > 54.8 µM | 3.04 µM | 4.34 µM | 1.96 µM | 3.19 µM | 2.58 µM | 3.97 µM | 1.87 µM | 2.33 µM | 0.905 µM | 0.448 µM | 0.36 µM | 0.373 µM | 0.635 µM | 0.459 µM | 0.501 µM | 0.622 µM | 0.527 µM | 0.387 µM
COc1ccc2c(c1)C(=O)c1c-2c(OCCN2CCCCC2)nc2ccc(OC)cc12 | 16.4 µM | 10.1 µM | 2.63 µM | 16.7 µM | 2.28 µM | 2.67 µM | 7.68 µM | 6.64 µM | 4.47 µM | 2.7 µM | 2.02 µM | 0.429 µM | 0.54 µM | 4.51 µM | 0.648 µM | 0.474 µM | 1.12 µM | 1.08 µM | 1.27 µM | 0.435 µM
CCCCCCn1c2c(c3c(O)cccc31)C(=O)c1ccccc1-2 | > 100 µM | 32 µM | 37 µM | 24.2 µM | 44.9 µM | 41.9 µM | 34.7 µM | 63.6 µM |  | > 100 µM | 36.3 µM | 17.6 µM | 18.6 µM | 11 µM | 20.3 µM | 20.3 µM | 18.4 µM | 18.7 µM |  | 35.6 µM
Cn1c(=O)c(-c2c(Cl)cccc2Cl)cc2cnc(Nc3ccc(I)cc3)nc21 |  | 2.37 µM | 9.42 µM | 2.12 µM |  | 0.0785 µM | 0.469 µM |  | 3.09 µM | 1.56 µM | 0.0734 µM | 0.505 µM | 2.87 µM | 0.459 µM | < 0.0304 µM | < 0.0118 µM | 0.065 µM |  | 0.413 µM | 0.122 µM
Nc1nc(Cl)nc2c1ncn2C1OC(CO)C(O)C1O (configuration not stated) | > 100 µM | > 100 µM | > 100 µM | > 100 µM | > 100 µM | > 100 µM | > 100 µM | > 93.6 µM | > 100 µM | > 100 µM | 7.5 µM | 0.899 µM | 7.57 µM | > 100 µM | 3.01 µM | > 100 µM | 4.08 µM | 0.374 µM | > 100 µM | > 93.3 µM
